According to the Kinase Knowledgebase extract (Sharma et al. 2016):

These compounds were tested against CDK2 (UniProt P24941) (assay: Enzyme Assay).
In the case of Cc1c(Br)c(=O)n(C2CCCC2)c2nc(Nc3ccc(N4CCNC(C)(C)C4)cc3)ncc12, the IC50 is reported as 1330 nM.
Nc1cc2cnc(Nc3ccc(N4CCNCC4)cc3)nc2n(C2CCCC2)c1=O gave an IC50 of 95 nM.
CC(=O)c1c(C)c2cnc(Nc3ccc(N4CCNCC4)cc3)nc2n(C2CCCC2)c1=O was tested, and the IC50 was 233 nM.
Compound CCOCCc1cc2cnc(Nc3ccc(N4CCNCC4)cc3)nc2n(C2CCCC2)c1=O has an IC50 of 205 nM.
In the case of CCOCCOc1cc2cnc(Nc3ccc(N4CCNCC4)cc3)nc2n(C2CCCC2)c1=O, the IC50 is reported as over 5000 nM.
CCc1cc2cnc(Nc3ccc(N4CCC(O)CC4)cc3)nc2n(C2CCCC2)c1=O showed an IC50 of 179 nM.
Compound CC(C)n1c(=O)ccc2cnc(Nc3ccc(N4CCNCC4)cc3)nc21 has an IC50 of 84 nM.
O=c1ccc2cnc(Nc3ccc(N4CCNCC4)cc3)nc2n1C1CCCC1 showed an IC50 of 24 nM.
Compound CCOC(=O)c1cc2cnc(Nc3ccc(N4CCNCC4)cc3)nc2n(C2CCCC2)c1=O has an IC50 of 5950 nM.
In the case of O=c1c(Cc2ccccc2)cc2cnc(Nc3ccc(N4CCNCC4)cc3)nc2n1C1CCCC1, the IC50 is reported as over 5000 nM.
O=c1c(Br)cc2cnc(Nc3ccccc3)nc2n1C1CCCC1 was tested, and the IC50 was 80 nM.
For O=c1ccc2cnc(Nc3ccc(N4CCNCC4)cc3)nc2n1C1CCCCC1, the IC50 was 119 nM.
Compound CC(C)COc1cc2cnc(Nc3ccc(N4CCNCC4)cc3)nc2n(C2CCCC2)c1=O has an IC50 of 3150 nM.
In the case of CC(=O)c1cc2cnc(Nc3ccc(N4CCNCC4)cc3)nc2n(C2CCCC2)c1=O, the IC50 is reported as 556 nM.
For Cc1c(Br)c(=O)n(C2CCCC2)c2nc(Nc3ccc(N4CC(C)NC(C)C4)cc3)ncc12 (stereo not drawn), the IC50 was 1860 nM.
Work on CCc1cc2cnc(Nc3ccc(N4CCNCC4)cc3)nc2n(C2CCCC2)c1=O yielded an IC50 of 142 nM.
In the case of O=c1c(F)cc2cnc(Nc3ccc(N4CCNCC4)cc3)nc2n1C1CCCC1, the IC50 is reported as 139 nM.
With Cc1cc2cnc(Nc3ccc(N4CCNCC4)cc3)nc2n(C2CCCC2)c1=O the IC50 was 59 nM.
